Experimental data reported in patent publication US11547703B2, “Substituted fused heteroaromatic tricyclic compounds as kinase inhibitors and the use thereof” (IMPACT THERAPEUTICS (SHANGHAI), INC, priority 2017, dated 2023).

Tests used:
[1] = tested on: human breast cancer cell MDA-MB-468; test: MTT assay, growth of MDA-MB-468 cells; assay type: cell-based; conditions: for IC50: Homo sapiens, MDA-MB-468, 168 h, single agent, 7 days, MTT
Experimental: (§1) MDA-MB-468 cells were digested by trypsinase, centrifuged at 800 rpm for 5 minutes, the supernatant was discarded, resuspended with fresh medium (RPMI 1640 medium+10% FBS) and counted. The cells were seeded into 96-well cell culture plate with appropriate cell density and incubated overnight in a 37° C. 5% CO2 incubator. The stock solutions of the tested compound and the reference compound AZD0156 were serially diluted to 8 concentrations by DMSO at the ratios of 1:3 and 1:10, respectively: the last concentration was negative control of DMSO (0 μM, the final concentration of DMSO was 1%). 5 μL of each concentration was added to 120 μL of medium (25 times diluted) and mixed by shaking. The overnight cells were taken and the culture medium was removed, 195 μL of fresh medium (PRMI 1640+5% FBS) was added to each well, and 5 μL of diluted medium containing the corresponding concentration of the tested sample was added respectively, and the culture plate was then placed in the 5% CO2 cell culture incubator at 37° C. for 7 days (On the fourth day, the medium containing drugs was removed and fresh medium containing drugs was added for continuous cultivation). After removing the original solution, 100 μL of fresh serum-free DMEM medium containing MTT (0.5 mg/mL) was added to each well, the culture was continued. After 4 hours, the original solution was removed, 100 μL of DMSO was added into each well, the 96-well plates were shaken away from light for 10 minutes and placed in a multi-function reader to read the absorbance at the wavelength of 552/630/690 nm. GraphPad Prism 6.0 was used to analyze the data. The inhibitory activity of compounds on cell proliferation was plotted based on cell viability and compound concentration. The IC50 value was fitted by a sigmoidal dose response curve equation Y=100/(1+10^(Log C−Log IC50)), where C was the concentration of compound.

ATM enzyme (human) = ATM enzyme (human) (Homo sapiens, UniProt Q13315); test: ATM kinase assay (HTRF, phosphorylation of GST-cMyc-p53); assay type: biochemical; conditions: 0.5 h; detected concentration 1 μm
Experimental: ATM enzyme (human) was added to the reaction solution containing 30 nM GST-cMyc-p53 and 10 μM Mg/ATP, and then 50 times the concentration of the tested compound (or reference compound AZD0156) dissolved in 100% DMSO was added to the final concentration of 10 μM/1 μM/0.1 μM/0.01 μM. The reaction was initiated by the addition of a Mg/ATP mixture and incubation for 30 minutes at room temperature, the reaction was quenched by the addition of a stop solution containing EDTA. Finally, the detection buffer containing the d2-labeled anti-GST monoclonal antibody and the europium-labeled anti-phospho p53 (Ser15) antibody was added. The plate was then read in time resolved fluorescence mode and the homogeneous time resolved fluorescence (HTRF) signal was determined according to the equation: HTRF=10000×(Em665nm/Em620nm). Each compound sample was repeated in duplicate. The negative control contained all components except the ATM enzyme, and the positive control contained all components. All reactions were quenched by adding EDTA.
The compounds were serially diluted to 10 concentrations with 100% DMSO at the ratio of 1:3 and 1:10 (the last concentration was negative control of DMSO), then added to the ATM buffer and diluted to a final concentration of 10, 3, 1, 0.3, 0.1, 0.03, 0.01, 0.003, 0.001 and 0 μM, respectively. ATM kinase inhibition was detected by using the method described above. The curve equation for calculating IC50 value is as follows: […]
wherein, C is the concentration of compound and D is the slope factor. Table 2 summarizes the IC50 values of compounds inhibiting ATM kinase.

[2] = tested on: human colon cancer cell SW620; test: MTT assay, growth of SW620 cells, compounds combined with CPT-11; assay type: cell-based; conditions: for IC50: Homo sapiens, SW-620, 120 h, 205 nM CPT-11, 5 days, MTT
Experimental: as §1, with “SW620” for “MDA-MB-468”, “respectively, and” for “respectively:”, “containing 205 nM CPT-11” for “(PRMI 1640+5% FBS)”, “5 days.” for “7 days (On the fourth day, the medium containing drugs was removed and fresh medium containing drugs was added for continuous cultivation).”

Sequence of ATM enzyme (human) (Q13315 whole entry): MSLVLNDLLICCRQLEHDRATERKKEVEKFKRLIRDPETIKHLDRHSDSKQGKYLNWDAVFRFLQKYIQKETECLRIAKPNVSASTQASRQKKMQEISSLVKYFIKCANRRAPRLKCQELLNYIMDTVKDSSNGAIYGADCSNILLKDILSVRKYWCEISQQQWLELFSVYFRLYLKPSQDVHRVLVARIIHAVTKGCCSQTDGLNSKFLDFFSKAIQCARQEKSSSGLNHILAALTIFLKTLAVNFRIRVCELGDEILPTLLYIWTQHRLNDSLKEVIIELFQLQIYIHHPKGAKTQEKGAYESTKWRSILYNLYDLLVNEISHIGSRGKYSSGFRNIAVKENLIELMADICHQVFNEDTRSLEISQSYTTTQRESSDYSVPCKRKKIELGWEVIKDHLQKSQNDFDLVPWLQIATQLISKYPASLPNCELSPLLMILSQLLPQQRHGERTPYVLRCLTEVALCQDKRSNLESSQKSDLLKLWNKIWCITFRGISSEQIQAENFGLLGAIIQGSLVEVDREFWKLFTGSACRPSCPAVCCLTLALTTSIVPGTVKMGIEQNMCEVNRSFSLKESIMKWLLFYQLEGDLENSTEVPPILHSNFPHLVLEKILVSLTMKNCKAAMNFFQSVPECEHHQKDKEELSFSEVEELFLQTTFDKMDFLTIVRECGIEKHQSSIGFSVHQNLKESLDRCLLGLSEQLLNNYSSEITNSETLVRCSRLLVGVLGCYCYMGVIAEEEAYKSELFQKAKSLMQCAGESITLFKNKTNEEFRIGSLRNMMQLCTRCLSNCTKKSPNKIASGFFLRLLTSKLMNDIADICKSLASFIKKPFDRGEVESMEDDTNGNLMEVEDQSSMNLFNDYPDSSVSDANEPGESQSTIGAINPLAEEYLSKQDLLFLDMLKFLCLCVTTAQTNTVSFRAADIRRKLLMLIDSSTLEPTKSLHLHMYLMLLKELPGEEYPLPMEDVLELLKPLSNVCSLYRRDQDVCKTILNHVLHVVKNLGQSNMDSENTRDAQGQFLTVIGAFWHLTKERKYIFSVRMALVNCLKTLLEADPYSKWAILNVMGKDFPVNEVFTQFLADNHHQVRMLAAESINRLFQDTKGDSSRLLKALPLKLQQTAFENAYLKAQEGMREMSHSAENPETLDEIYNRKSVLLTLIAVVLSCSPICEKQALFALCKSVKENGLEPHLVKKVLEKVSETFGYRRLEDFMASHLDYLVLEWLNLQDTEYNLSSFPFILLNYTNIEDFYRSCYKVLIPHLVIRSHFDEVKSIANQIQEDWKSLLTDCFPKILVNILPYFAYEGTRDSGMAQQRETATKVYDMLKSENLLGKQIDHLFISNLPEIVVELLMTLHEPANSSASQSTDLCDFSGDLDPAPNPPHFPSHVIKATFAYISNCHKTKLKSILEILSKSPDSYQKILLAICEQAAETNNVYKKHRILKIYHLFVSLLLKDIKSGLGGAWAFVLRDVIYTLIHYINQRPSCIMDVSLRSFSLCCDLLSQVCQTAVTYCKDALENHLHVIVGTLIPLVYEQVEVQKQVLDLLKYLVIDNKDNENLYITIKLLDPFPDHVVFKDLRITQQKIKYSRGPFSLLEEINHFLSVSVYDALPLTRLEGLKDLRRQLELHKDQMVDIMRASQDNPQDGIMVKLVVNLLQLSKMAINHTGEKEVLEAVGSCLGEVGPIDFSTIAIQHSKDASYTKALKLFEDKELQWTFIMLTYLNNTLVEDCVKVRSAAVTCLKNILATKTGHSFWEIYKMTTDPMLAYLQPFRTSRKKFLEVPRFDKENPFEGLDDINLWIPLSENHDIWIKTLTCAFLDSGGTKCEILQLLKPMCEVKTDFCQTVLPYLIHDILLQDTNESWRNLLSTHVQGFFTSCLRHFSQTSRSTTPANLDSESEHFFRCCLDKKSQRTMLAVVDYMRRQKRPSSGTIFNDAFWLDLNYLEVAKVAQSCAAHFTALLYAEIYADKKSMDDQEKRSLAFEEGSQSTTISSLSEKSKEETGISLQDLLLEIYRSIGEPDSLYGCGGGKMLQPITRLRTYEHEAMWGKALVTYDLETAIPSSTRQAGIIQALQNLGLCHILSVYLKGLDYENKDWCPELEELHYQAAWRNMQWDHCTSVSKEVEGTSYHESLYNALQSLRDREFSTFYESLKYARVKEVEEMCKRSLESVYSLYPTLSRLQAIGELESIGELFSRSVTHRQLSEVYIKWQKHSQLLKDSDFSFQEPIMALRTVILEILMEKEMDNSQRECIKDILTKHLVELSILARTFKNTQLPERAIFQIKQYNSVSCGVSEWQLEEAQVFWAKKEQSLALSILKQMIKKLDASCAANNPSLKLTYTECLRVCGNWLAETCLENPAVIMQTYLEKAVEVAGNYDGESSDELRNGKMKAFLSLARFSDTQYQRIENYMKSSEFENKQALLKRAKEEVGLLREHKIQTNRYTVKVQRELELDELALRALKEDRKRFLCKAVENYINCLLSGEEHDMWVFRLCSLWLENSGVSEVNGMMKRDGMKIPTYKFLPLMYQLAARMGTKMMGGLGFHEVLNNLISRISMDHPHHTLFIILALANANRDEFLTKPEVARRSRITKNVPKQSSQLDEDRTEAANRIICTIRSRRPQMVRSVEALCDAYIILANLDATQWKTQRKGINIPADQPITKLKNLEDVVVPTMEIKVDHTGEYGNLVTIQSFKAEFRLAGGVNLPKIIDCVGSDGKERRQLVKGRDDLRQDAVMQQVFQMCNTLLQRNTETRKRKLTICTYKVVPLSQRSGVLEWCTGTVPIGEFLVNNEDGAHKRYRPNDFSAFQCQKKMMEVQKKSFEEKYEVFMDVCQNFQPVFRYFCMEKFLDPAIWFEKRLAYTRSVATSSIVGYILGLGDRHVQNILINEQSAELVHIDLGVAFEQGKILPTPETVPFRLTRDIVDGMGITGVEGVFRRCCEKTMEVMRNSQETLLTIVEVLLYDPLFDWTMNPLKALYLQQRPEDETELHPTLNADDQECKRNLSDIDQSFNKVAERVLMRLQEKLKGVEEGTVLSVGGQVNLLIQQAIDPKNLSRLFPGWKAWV

| IC50 [1] [nM] | inhibition at 1 µM (ATM enzyme (human)) [%] | IC50 [2] [nM] | SMILES | growth of MDA-MB-468 cell (in words) ([1]; MTT assay) | growth of SW620 cell (in words) ([2]; MTT assay) |
| --- | --- | --- | --- | --- | --- |
| 25.1 | 99 | 434 | C[C@@H]1CN(c2cccc3nc4ccc(-c5ccc(OCCCN(C)C)nc5)cn4c23)C[C@H](C)N1C [Example 8, N,N-dimethyl-3-((5-(9-((3S,5R)-3,4,5-trimethylpiperazin-1-yl)benzo[4,5]imidazo[1,2-a]pyridin-2-yl)pyridin-2-yl)oxy)propan-1-amine] |  |  |
| 41.4 | 81 | 40.9 | CN(C)C1CCN(c2ccc(-c3ccc4nc5cccc(N6CCC(N(C)C)CC6)c5n4c3)cc2)CC1 [Example 56, N,N-dimethyl-1-(4-(9-(4-(dimethylamino)piperidin-1-yl)benzo[4,5]imidazo[1,2-a]pyridin-2-yl)phenyl)piperidin-4-amine] | inhibited the growth | inhibited the growth |
| 2400 | 88 | 2100 | CN(C)C1CCN(c2ccc(-c3ccc4nc5cccc(N6CCOCC6)c5n4c3)cn2)CC1 [Example 42, N,N-dimethyl-1-(5-(9-morpholinobenzo[4,5]imidazo[1,2-a]pyridin-2-yl)pyridin-2-yl)piperidin-4-amine] |  |  |
| 542 | 99 | 1050 | CN1CCN(c2cccc3nc4ccc(-c5ccc(N6CCC(N(C)C)CC6)c(C(F)(F)F)c5)cn4c23)CC1 [Example 43, N,N-dimethyl-1-(2-(trifluoromethyl)-4-(9-(4-methylpiperazin-1-yl)benzo[4,5]imidazo[1,2-a]pyridin-2-yl)-phenyl)piperidin-4-amine] |  |  |
